Assay results as given in a melting point compilation (Tetko et al.; mined from patent text by program, amines drawn as free bases though some values may be those of a salt).

Structure (SMILES) | melting point
COc1c(C(C)(C)C)cc(SC)cc1C(C)(C)C | 50 to 52 °C
COc1ccc(-n2c(SC)nc3cc(OC)cc(OC)c3c2=O)cc1 | 212 to 215 °C
OC(CCCN1CCC(O)(c2ccc(Cl)cc2)CC1)c1ccc(F)cc1 (configuration not stated) | 128 to 130 °C
COCc1nc2c(N)nc3cc(CCC#N)ccc3c2n1CC(C)(C)O | 191 to 193 °C
CC(=N)NS(=O)(=O)C=Cc1ccccc1[N+](=O)[O-] | 175 to 178 °C
Cc1c(-c2ccc(O)cc2)n(Cc2ccc(C#CCN3CCCC3)cc2)c2ccc(O)cc12 | 174 to 176 °C
CCc1cc(=O)c(C(N)=O)c(CC)[nH]1 | 254 °C
O=C(O)CC1c2ccccc2COc2ccccc21 (configuration not stated) | 114 to 115 °C
CCc1[nH]n(C2CCCC2)c2nc(-c3ccccc3C(F)(F)F)nc(=O)c1-2 | 201 to 202 °C
Clc1ccc2[nH]c3c(c2c1)CN(CCc1ccccn1)CC3 | 198 to 200 °C
O=C(OC1CCN(Cc2ccccc2)CC1)c1ccc([N+](=O)[O-])cc1 | 87 to 89 °C
CC(Cc1ccc(C(=O)C(C)(C)O)cc1)C(=O)O (configuration not stated) | 57 °C
O=S(=O)(NC1CCCCC1)c1ccc2c(c1)S(=O)(=O)NC1CCCN21 (configuration not stated) | 195 to 197 °C
CCOC(=O)CCc1cc(O)ccc1-c1ccc(-c2cccnc2)c(CO)c1 | 46 to 48 °C
Cc1cccc2ncn(C3CCC(=O)NC3=O)c(=O)c12 (configuration not stated) | 262 to 264 °C
CCNC(=O)c1ccc(N2CCNCC2)c(F)c1 | 142 to 145 °C
COC(=O)N1CC=C(c2ccc(N3C[C@H](CNC(C)=O)OC3=O)cc2)CC1 | 142 to 145 °C
CC1(C)OC(=O)C(Cc2c[nH]c3ccc(Br)cc23)C(=O)O1 | 179 to 181 °C
CC(=O)Nc1cc(I)c(-c2cc([N+](=O)[O-])c(NC(C)=O)cc2I)cc1[N+](=O)[O-] | 296 to 298 °C
CC(=O)NC[C@H]1CN(c2ccc(C(=O)c3cnc4cc(C)ccn34)cc2)C(=O)O1 | 254 to 256 °C
COc1ccc(C2=NNC(=O)CC2)cc1N | 218 to 220 °C
Cc1ccc(Cc2cnc(NCCCCc3ncc(Br)cc3N)[nH]c2=O)cn1 | 196 to 197 °C
NCCc1cccc(N2CCN(c3ccc(CCC(=O)O)cc3)C2=O)c1 | > 250 °C
CCOC(=O)C1=C(C)NC(C#N)=C(C(=O)OCC)C1c1ccccc1C(=O)OC (configuration not stated) | 126 to 127 °C

Structure (SMILES) | melting point
OC[C@H](O)[C@@H](O)CCNCc1ccccc1 | 117 to 118 °C
O=C1c2c(c(=O)n3nc(-c4ccccc4)cc3n2Cc2ccccc2)CN1Cc1ccccc1 | 232 to 234 °C
CC(C)(C)NC(=O)[C@@H]1C[C@@H]2CCCC[C@@H]2CN1C[C@@H](O)[C@H](Cc1ccccc1)NC(=O)[C@@H](Nc1nc(CO)cs1)C(C)(C)S(C)(=O)=O | 126 °C
O=C1NCc2c(Oc3ccccc3)cccc2N1c1ccccc1 | 225 to 227 °C
C[C@@H]1CCN(C(=O)C(C)(C)C)[C@@H](C(=O)NOCc2ccccc2)C1 | 107 to 108 °C
Cc1ccc(C(=C(C=CC=O)c2nnnn2C)c2ccc(C)cc2F)c(F)c1 | 88 to 108 °C
C=CCONC(=O)c1c(Cl)nn(C)c1Cl | 96 to 97 °C
CSc1cc2cc(-c3ccccc3)ccc2cc1OS(=O)(=O)C(F)(F)F | 79.4 to 80.3 °C
CC(C)(C)CC(C)(C)NC(=O)Nc1ccccc1CCc1cc(C(C)(C)C)c(O)c(C(C)(C)C)c1 | 168 to 169 °C
CCCC(CCOc1c(-c2ccc(S(C)(=O)=O)cc2)cnn(-c2ccc(F)cc2)c1=O)SC (configuration not stated) | 90 to 92 °C
COc1ccc(CC2CCC3NC(=O)C(CO)CC3C2)cc1 (configuration not stated) | 193 to 200 °C
O=C(NCCOc1ccc(CC(Oc2ccc(Cl)cc2)C(=O)O)cc1)c1ccc(-c2ccccn2)cc1 (configuration not stated) | 155 to 156 °C
CNC(=S)NCCN1CCC(Nc2nc3cncnc3n2Cc2ccc(F)cc2)CC1 | 206 °C
CC(C)(C)OC(=O)N1CCC(c2nc3cc(-c4ccc(C#N)cc4)ccc3o2)CC1 | 137 to 141 °C
Cc1ccc(S(=O)(=O)N2[C@H](CCCc3nc(C)no3)CC[C@@H]2c2ccc(F)cc2)cc1 (racemic) | 91 °C
CCN(CCNC(=O)c1ccc2ccccc2c1)C1CCc2ncsc2C1 (configuration not stated) | 110 °C
CC1(C)OC(=O)C(C(=O)Nc2ccc(C(F)(F)F)cc2)=C(O)O1 | 206 to 208 °C
CC1(C)CCC(C)(C)c2cc(C(N)COc3ccc(C(=O)O)c(O)c3)ccc21 (configuration not stated) | 241 to 242 °C
CCOC(=O)c1cccc2c(=O)cc(-c3ccc(OCc4ncc5ccccc5n4)cc3)oc12 | 265 to 266 °C
COc1cc(C(O)CS(C)(=O)=O)cc(OC)c1N(C)C (configuration not stated) | 147 to 148 °C
COc1ccc(-c2nc(C)cc(O)n2)cc1 | 198 to 199 °C
CCCCOc1cc(CCS(N)(=O)=O)n(Cc2ccc(Cl)cc2Cl)n1 | 134 to 136 °C
O=C(COc1cccc2cccnc12)c1ccccc1 | 124 to 125 °C
COc1cc(C=CC(=O)CCc2ccco2)ccc1O | 82 to 84 °C

Structure (SMILES) | melting point
Sc1nnc(-c2ccc3[nH]ncc3c2)o1 | 283 to 284 °C
O=C(Nc1cccc(Cl)c1)NC1CC(C2CCCCC2)c2ccccc2NC1=O (configuration not stated) | 222 to 225 °C
CCCCC(CC(=O)Nc1cc(C(N)=O)ccc1C(C)(C)C)c1ccc(OC)cc1OC (configuration not stated) | 186 to 188 °C
N#CCCN1CCN(Cc2ccc3c(c2)-c2[nH]nc(-c4ccsc4)c2C3)CC1 | 156 to 157 °C
CCN(CC)CCOCCc1ccc2c(c1)OCO2 | 83 to 84 °C
COc1ccc2c(c1)CC(Nc1ccc(OCc3ccccc3)cc1)C2 (configuration not stated) | 55 to 57 °C
O=C1CC2CCC1C(Nc1ccc(Cl)cc1)C21CCCCC1 (configuration not stated) | 139 to 141 °C
CCN(CC(O)CCl)c1ccc2c(c1)C(=O)N(C)C2=O (configuration not stated) | 123 °C
NS(=O)(=O)c1ccco1 | 120 to 122 °C
COc1ccc(C(O)Cc2ccncc2)c2c1OCC2C (configuration not stated) | 96 to 100 °C
Cc1noc2cc3c(cc12)C1(CO3)C(=O)N(Cc2ncccc2F)c2ccccc21 (configuration not stated) | 167 to 169 °C
CCCCC(CC)COC(=O)C(C#N)=Cc1ccc(NC(C)=O)cc1 (configuration not stated) | 119 °C
Cc1ccccc1OCC(O)CN (configuration not stated) | 64 °C
CCCCc1c[nH]c2ccc(CO)cc2c1=O | 260 °C
COc1ccc(C2=NN(c3ccccc3)C(=O)[C@H]3CC=CC[C@@H]23)cc1OC1CCCC1 (relative stereo) | 134 to 135 °C
CNC(=O)C(SC)c1cc(Cl)cc(C(=O)c2ccccc2)c1N (configuration not stated) | 170 to 171 °C
N#Cc1ccn2ccccc12 | 53 to 54 °C
CC1CN(c2cc3c(c(NCc4ccccc4)c2F)c(=O)c(C(=O)O)cn3C2CC2)CCN1 (configuration not stated) | 129 to 130 °C
COc1ccc2c(c1)C(=O)C(=Cc1nccs1)CO2 | 130 to 132 °C
Cc1cccc(C)c1NC(C)C(=O)O (configuration not stated) | 178 to 180 °C
COC(=O)c1cncn1C1c2ccccc2C(OC)(OC)C1(C)C (configuration not stated) | 140 to 141 °C
O=C(Nc1cc2nc(-c3ccc(C(=O)C45CC6CC(CC(C6)C4)C5)cc3)[nH]c2cn1)c1ccccn1 | 305 °C
O=S(=O)(c1ccc(Cl)cc1)N1CCCC1c1ccsc1 (racemic) | 120 °C
Cc1c(C(=O)c2cccc(Cl)c2Cl)c2cccc(Br)c2n1CCCCl | 139 °C
